These results are taken from patent US20230119894A1, “THERAPEUTIC OR PROPHYLACTIC METHOD FOR DIABETES USING COMBINATION MEDICINE” (Japan Tobacco Inc., priority 2019, published 2023).

In data set [1] the test system is Salmonella typhimurium TA98. Description: Ames test (reverse mutation test), TA98. Particulars: for Number of revertant colonies: TA98; for Number of revertant colonies TA98: S9 Mix +, mean number of each plate. Here is the method: (§1) Metabolites 1, 3, and 5 and Metabolites C to H were each tested herein. The purpose of this test is to evaluate the potential of each metabolite to induce reverse mutations in the standard strains of Salmonella typhimurium (TA98, TA1537, TA100, and TA1535) and Escherichia coli (WP2uvrA), in either the presence or absence of a rat liver metabolic activation system (S9 mix).
(§2) The solvent used herein was dimethyl sulfoxide (DMSO, 100 μL/plate).
(§3) The test was performed by the pre-incubation method with or without S9 mix. When the test was performed without S9 mix, sodium phosphate buffer solution (pH 7.4) was added.
(§4) 0.5 mL of S9 mix or 0.5 mL of 0.1 mol/L sodium phosphate buffer solution (pH 7.4), and 0.1 mL of the bacterial culture solution were added to a test tube containing 0.1 mL of the negative control formulation (DMSO alone), the metabolite, or the positive control formulation. The mixtures were pre-incubated at 37° C. for 20 minutes while shaking. After the pre-incubation period, 2 mL of top agar were added and the mixtures were vortex-mixed and seeded onto plates. Two plates per treatment were used. Each plate was incubated at 37±1° C. for 48 hours or more and the revertant colonies were counted. The mean number of revertant colonies for each treatment plate was then calculated. […] Evaluation was based on mean values with no statistical comparisons being used.
In general terms: The Ames test uses bacterial strains that need an amino acid and regain growth without it when mutated back.

The test system of data set [2] is Salmonella typhimurium TA1537. Nature of the data set: Ames test (reverse mutation test), TA1537. The note with it: for Number of revertant colonies: TA1537; for Number of revertant colonies TA1537: S9 Mix +, mean number of each plate. Here is the method: as §1, §2, §3, §4
Data set [3] relates to Salmonella typhimurium TA1535. Nature of the data set: Ames test (reverse mutation test), TA1535. The procedure:
as §1, §2, §3, §4

Data set [4] deals with Salmonella typhimurium TA100. Description: Ames test (reverse mutation test), TA100. Particulars: for Number of revertant colonies: TA100; for Number of revertant colonies TA100: S9 Mix +, mean number of each plate. Here is the method: as §1, §2, §3, §4
A further data set deals with Escherichia coli WP2uvrA. Nature of the data set: Ames test (reverse mutation test), WP2uvrA. The class given is cell-based. Particulars: for Number of revertant colonies: WP2uvrA; for Number of revertant colonies WP2uvrA: S9 Mix +, mean number of each plate.

Where “and” joins values, the source holds several entries; their conditions need not be identical. Equal values may be shown once. Marks after values point to notes of the source that are not given here.

Take `Nc1ccc2cc3ccccc3cc2c1` [Example 2AA, 2-Aminoanthracene, reference compound]: the “Number of revertant colonies” value in data set [1] (S9 mix +, 0.5 μg/plate (positive control)) was 289; in data set [2] (S9 mix +, 2 μg/plate (positive control)), 135; in data set [3] (S9 mix +, 2.0 μg/plate (positive control)), 223 and 146 and 250.
For the molecule `CC(C)(C)Oc1cc(F)cc(-c2cc(N)nn2C(F)(F)F)c1` [Metabolite 1], the “Number of revertant colonies” value in data set [1] (S9 mix +, 185 μg/plate) was 16*; in data set [1] (S9 mix +, 556 μg/plate) it was 15*; in data set [1] (S9 mix +, 1667 μg/plate), 13*; in data set [1] (S9 mix +, 5000 μg/plate), 13*; in data set [1] (S9 mix −, 185 μg/plate), 9*; in data set [1] (S9 mix −, 556 μg/plate), 0*. The “Number of revertant colonies” value in data set [1] (S9 mix −, 1667 μg/plate) is 0*; in data set [1] (S9 mix −, 5000 μg/plate), 0*; in data set [2] (S9 mix +, 185 μg/plate) it was 2*; in data set [2] (S9 mix +, 556 μg/plate) it was 0*; in data set [2] (S9 mix +, 1667 μg/plate) it was 0*; in data set [2] (S9 mix +, 5000 μg/plate) it was 0*. The “Number of revertant colonies” value in data set [2] (S9 mix −, 185 μg/plate) was 0*; in data set [2] (S9 mix −, 556 μg/plate), 0*; in data set [2] (S9 mix −, 1667 μg/plate) it was 0*; in data set [2] (S9 mix −, 5000 μg/plate), 0*; in data set [4] (S9 mix +, 185 μg/plate) it was 78*; in data set [4] (S9 mix +, 556 μg/plate), 59*. Also, the “Number of revertant colonies” value was 50* in data set [4] (S9 mix +, 1667 μg/plate); 52* in data set [4] (S9 mix +, 5000 μg/plate); 38* in data set [4] (S9 mix −, 185 μg/plate); 0* in data set [4] (S9 mix −, 556 μg/plate); 0* in data set [4] (S9 mix −, 1667 μg/plate); 0* in data set [4] (S9 mix −, 5000 μg/plate). Further, the “Number of revertant colonies” value in data set [3] (S9 mix +, 185 μg/plate) is reported as 5*; in data set [3] (S9 mix +, 556 μg/plate), 4*; in data set [3] (S9 mix +, 1667 μg/plate), 4*; in data set [3] (S9 mix +, 5000 μg/plate), 2*; in data set [3] (S9 mix −, 185 μg/plate), 0*; in data set [3] (S9 mix −, 556 μg/plate), 0*. Also, the “Number of revertant colonies” value is 0* in data set [3] (S9 mix −, 1667 μg/plate); 0* in data set [3] (S9 mix −, 5000 μg/plate); 16* in the data set with Escherichia coli WP2uvrA (S9 mix +, 185 μg/plate); 18* with Escherichia coli WP2uvrA (S9 mix +, 556 μg/plate); 9* in the data set on Escherichia coli WP2uvrA (S9 mix +, 1667 μg/plate); 0* with Escherichia coli WP2uvrA (S9 mix +, 5000 μg/plate). The “Number of revertant colonies” value in the data set with Escherichia coli WP2uvrA (S9 mix −, 185 μg/plate) was 15*; in the data set with Escherichia coli WP2uvrA (S9 mix −, 556 μg/plate), 8*; in the data set with Escherichia coli WP2uvrA (S9 mix −, 1667 μg/plate) it was 5*; in the data set with Escherichia coli WP2uvrA (S9 mix −, 5000 μg/plate), 0*.
In the case of `Nc1cc(-c2cc(F)cc(OC(F)(F)F)c2)n(-c2cncc(C(F)(F)F)c2)n1` [Metabolite 5], the “Number of revertant colonies” value was found to be 9 in data set [3] (S9 mix +, 185 μg/plate); 9 in data set [3] (S9 mix −, 6.9 μg/plate); 6 in data set [3] (S9 mix −, 556 μg/plate).
Turning to `Cl.Nc1c2ccccc2nc2ccccc12.O` [Example 9AA, 9-Aminoacridine hydrochloride monohydrate, reference compound], the “Number of revertant colonies” value in data set [2] (S9 mix −, 80 μg/plate (positive control)) turned out to be 372.
Consider `CC(C)(OCc1cc(F)cc(-c2cc(N)nn2-c2ccc(F)cc2)c1)C(F)(F)F` [Metabolite D, reference compound], for which the “Number of revertant colonies TA98” value is 39 in data set [1] (dose 2.3 μg/plate); 42 in data set [1] (dose 6.9 μg/plate); 52 in data set [1] (dose 21 μg/plate); 47 in data set [1] (dose 62 μg/plate); 49 in data set [1] (dose 185 μg/plate); 51 in data set [1] (dose 556 μg/plate). The “Number of revertant colonies TA98” value stood at 57 in data set [1] (dose 1667 μg/plate) and 88 in data set [1] (dose 5000 μg/plate). Besides, the “Number of revertant colonies TA1537” value in data set [2] (dose 2.3 μg/plate) is 14; in data set [2] (dose 6.9 μg/plate), 20; in data set [2] (dose 62 μg/plate), 18; in data set [2] (dose 185 μg/plate), 15; in data set [2] (dose 556 μg/plate) it was 15; in data set [2] (dose 1667 μg/plate) it was 19. In addition, the “Number of revertant colonies TA1537” value in data set [2] (dose 5000 μg/plate) was 24. The “Number of revertant colonies TA100” value worked out at 139 in data set [4] (dose 2.3 μg/plate); 203 in data set [4] (dose 6.9 μg/plate); 237 in data set [4] (dose 21 μg/plate); 185 in data set [4] (dose 62 μg/plate); 151 in data set [4] (dose 185 μg/plate); 119 in data set [4] (dose 556 μg/plate). Besides, the “Number of revertant colonies TA100” value in data set [4] (dose 1667 μg/plate) amounted to 100. The “Number of revertant colonies WP2uvrA” value in the data set on Escherichia coli WP2uvrA (dose 2.3 μg/plate) was found to be 31; in the data set on Escherichia coli WP2uvrA (dose 21 μg/plate), 24; with Escherichia coli WP2uvrA (dose 185 μg/plate) it was 23; in the data set on Escherichia coli WP2uvrA (dose 556 μg/plate), 32; in the data set with Escherichia coli WP2uvrA (dose 1667 μg/plate) it was 28; in the data set with Escherichia coli WP2uvrA (dose 5000 μg/plate), 28.
